Results published in PubChem BioAssay AID1963976 (Molecular Pharmacology Branch, DTP, NCI, 2024).
Several values for one entry are separate records, joined by “and”; a condition that tells them apart may be missing. Identical values can stand only once. Values belong to the compound of their own block, whether it stands above or below them.

Test system: 435261-313-R-J1-PDC tumor spheroid viability
Assay: Anticancer human tumor 435261-313-R-J1-PDC patient-derived colon adenocarcinoma cell line growth inhibition [PI3K]
Details: spheroids with HUVEC and MSC; for viability, T/C: stronger effect = lower value
Procedure, shortened: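 Tumor cells were combined with HUVEC and MSCs into spheroids, then dosed with PI3K-inhibitor combinations over half-log ranges capped near clinical Cmax or 10 microM.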

[1] = curve of first compound, second compound 0.0316 µM
[2] = curve of first compound, second compound 0.1 µM
[3] = curve of first compound, second compound 0.316 µM
[4] = curve of first compound, second compound 1 µM
[5] = second compound 0.0316 µM, first compound 0.0316 µM
[6] = second compound 0.0316 µM, first compound 0.1 µM
[7] = second compound 0.0316 µM, first compound 0.316 µM
[8] = second compound 0.0316 µM, first compound 1 µM
[9] = second compound 0.0316 µM, first compound 3.16 µM
[10] = second compound 0.0316 µM, first compound 10 µM
[11] = second compound 0.1 µM, first compound 0.0316 µM
[12] = second compound 0.1 µM, first compound 0.1 µM
[13] = second compound 0.1 µM, first compound 0.316 µM
[14] = second compound 0.1 µM, first compound 1 µM
[15] = second compound 0.1 µM, first compound 3.16 µM
[16] = second compound 0.1 µM, first compound 10 µM
[17] = second compound 0.316 µM, first compound 0.0316 µM
[18] = second compound 0.316 µM, first compound 0.1 µM
[19] = second compound 0.316 µM, first compound 0.316 µM
[20] = second compound 0.316 µM, first compound 1 µM
[21] = second compound 0.316 µM, first compound 3.16 µM
[22] = second compound 0.316 µM, first compound 10 µM
[23] = second compound 1 µM, first compound 0.0316 µM
[24] = second compound 1 µM, first compound 0.1 µM
[25] = second compound 1 µM, first compound 0.316 µM
[26] = second compound 1 µM, first compound 1 µM
[27] = second compound 1 µM, first compound 3.16 µM
[28] = second compound 1 µM, first compound 10 µM
[29] = curve of first compound, second compound 3.16 µM
[30] = curve of first compound, second compound 10 µM
[31] = second compound 3.16 µM, first compound 0.0316 µM
[32] = second compound 3.16 µM, first compound 0.1 µM
[33] = second compound 3.16 µM, first compound 0.316 µM
[34] = second compound 3.16 µM, first compound 1 µM
[35] = second compound 3.16 µM, first compound 3.16 µM
[36] = second compound 3.16 µM, first compound 10 µM
[37] = second compound 10 µM, first compound 0.0316 µM
[38] = second compound 10 µM, first compound 0.1 µM
[39] = second compound 10 µM, first compound 0.316 µM
[40] = second compound 10 µM, first compound 1 µM
[41] = second compound 10 µM, first compound 3.16 µM
[42] = second compound 10 µM, first compound 10 µM
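Also: spheroids exposed to compounds for 7 days.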

IC50 (curve of first compound, second compound 0.00316 µM): 4.97 µM | IC50 (curve of first compound, second compound 0.01 µM): 3.25 µM | IC50 [1]: < 0.0316 µM | IC50 [2]: < 0.0316 µM | IC50 [3]: < 0.0316 µM | IC50 [4]: < 0.0316 µM
SMILES: CC1(C)CCC(CN2CCN(c3ccc(C(=O)NS(=O)(=O)c4ccc(NCC5CCOCC5)c([N+](=O)[O-])c4)c(Oc4cnc5[nH]ccc5c4)c3)CC2)=C(c2ccc(Cl)cc2)C1 + COc1c(OCCCN2CCOCC2)ccc2c3n(c(=NC(=O)c4cnc(N)nc4)nc12)CCN3
viability, T/C (second compound 0.00316 µM, first compound 0.0316 µM): 77.8% | viability, T/C (second compound 0.00316 µM, first compound 0.1 µM): 65% | viability, T/C (second compound 0.00316 µM, first compound 0.316 µM): 59.7% | viability, T/C (second compound 0.00316 µM, first compound 1 µM): 66.4% | viability, T/C (second compound 0.00316 µM, first compound 3.16 µM): 92.9% | viability, T/C (second compound 0.00316 µM, first compound 10 µM): 15.3% | viability, T/C (second compound 0.01 µM, first compound 0.0316 µM): 45.6% | viability, T/C (second compound 0.01 µM, first compound 0.1 µM): 41.2% | viability, T/C (second compound 0.01 µM, first compound 0.316 µM): 44% | viability, T/C (second compound 0.01 µM, first compound 1 µM): 81% | viability, T/C (second compound 0.01 µM, first compound 3.16 µM): 49.6% | viability, T/C (second compound 0.01 µM, first compound 10 µM): 10% | viability, T/C [5]: 25.2% | viability, T/C [6]: 25.9% | viability, T/C [7]: 28.5% | viability, T/C [8]: 22.6% | viability, T/C [9]: 33.9% | viability, T/C [10]: 8.36% | viability, T/C [11]: 16.8% | viability, T/C [12]: 15.3% | viability, T/C [13]: 14.9% | viability, T/C [14]: 13.9% | viability, T/C [15]: 13.5% | viability, T/C [16]: 5.88% | viability, T/C [17]: 8.12% | viability, T/C [18]: 8.36% | viability, T/C [19]: 8.35% | viability, T/C [20]: 7.93% | viability, T/C [21]: 9.73% | viability, T/C [22]: 4.39% | viability, T/C [23]: 4.19% | viability, T/C [24]: 4.08% | viability, T/C [25]: 4.61% | viability, T/C [26]: 5.2% | viability, T/C [27]: 6.19% | viability, T/C [28]: 3.8%

IC50 (curve of compound): 5.4 µM and 5.68 µM
SMILES: CCCS(=O)(=O)Nc1ccc(F)c(C(=O)c2c[nH]c3ncc(-c4ccc(Cl)cc4)cc23)c1F
viability, T/C (compound 0.0316 µM): 77% and 97.8% | viability, T/C (compound 0.1 µM): 91% and 84.7% | viability, T/C (compound 0.316 µM): 110% and 111% | viability, T/C (compound 1 µM): 120% and 96.2% | viability, T/C (compound 3.16 µM): 88.7% and 98.1% | viability, T/C (compound 10 µM): 5.61% and 4.11%

IC50 [1]: 6.85 µM | IC50 [2]: > 10 µM | IC50 [3]: 7.21 µM | IC50 [4]: 5.49 µM | IC50 [29]: 4.51 µM | IC50 [30]: 0.319 µM
SMILES: C#Cc1c(F)ccc2cc(O)cc(-c3ncc4c(N5CC6CCC(C5)N6)nc(OCC56CCCN5CC(F)C6)nc4c3F)c12 (stereo not given) + CC(Nc1ncnc2nc[nH]c12)c1cc2cccc(Cl)c2c(=O)n1-c1ccccc1
viability, T/C [5]: 78.7% | viability, T/C [6]: 100% | viability, T/C [7]: 98.3% | viability, T/C [8]: 89.3% | viability, T/C [9]: 81.9% | viability, T/C [10]: 34.5% | viability, T/C [11]: 97.8% | viability, T/C [12]: 109% | viability, T/C [13]: 72.2% | viability, T/C [14]: 82% | viability, T/C [15]: 68.2% | viability, T/C [16]: 56% | viability, T/C [17]: 89% | viability, T/C [18]: 85.3% | viability, T/C [19]: 79.8% | viability, T/C [20]: 105% | viability, T/C [21]: 103% | viability, T/C [22]: 33.2% | viability, T/C [23]: 94.9% | viability, T/C [24]: 70.4% | viability, T/C [25]: 82.3% | viability, T/C [26]: 103% | viability, T/C [27]: 67% | viability, T/C [28]: 31.4% | viability, T/C [31]: 62% | viability, T/C [32]: 66.2% | viability, T/C [33]: 43.3% | viability, T/C [34]: 90.6% | viability, T/C [35]: 50.1% | viability, T/C [36]: 32.7% | viability, T/C [37]: 56.5% | viability, T/C [38]: 46.9% | viability, T/C [39]: 52.3% | viability, T/C [40]: 34.9% | viability, T/C [41]: 18.8% | viability, T/C [42]: 13.7%

SMILES: Cn1nccc1Nc1nccc(-c2ccn(C(CO)c3ccc(Cl)c(F)c3)c(=O)c2)n1 (stereo not given)
viability, T/C (compound 0.316 µM): 68.2% [middle of 4 runs] | viability, T/C (compound 1 µM): 45.7% [middle of 4 runs] | viability, T/C (compound 3.16 µM): 30.4% [middle of 4 runs] | viability, T/C (compound 10 µM): 18.4% [middle of 4 runs]

IC50 (curve of compound): > 0.1 µM
SMILES: CC(=O)c1c(C)c2cnc(Nc3ccc(N4CCNCC4)cn3)nc2n(C2CCCC2)c1=O
viability, T/C (compound 0.000316 µM): 69.4% and 92% and 91.1% | viability, T/C (compound 0.001 µM): 92.5% and 97.7% and 88.2% | viability, T/C (compound 0.00316 µM): 86.3% and 105% and 87% | viability, T/C (compound 0.01 µM): 105% and 93.1% and 75.4% | viability, T/C (compound 0.0316 µM): 99.9% and 90.4% and 103% | viability, T/C (compound 0.1 µM): 68.8% and 77.6% and 68.9%

IC50 (compound alone, run of 06/12/2023): 447 nM [middle of 6 runs]
SMILES: Cc1nc(NC(=O)N2CCCC2C(N)=O)sc1-c1ccnc(C(C)(C)C(F)(F)F)c1 (stereo not given)
viability, T/C (compound 0.1 µM): 82.1% [middle of 6 runs] | viability, T/C (compound 0.316 µM): 64.4% [middle of 6 runs] | viability, T/C (compound 1 µM): 27.3% [middle of 6 runs] | viability, T/C (compound 3.16 µM): 17.2% [middle of 6 runs] | viability, T/C (compound 10 µM): 7% [middle of 6 runs]

IC50 [1]: > 10 µM | IC50 [2]: > 10 µM | IC50 [3]: > 10 µM | IC50 [4]: > 10 µM | IC50 [29]: > 10 µM | IC50 [30]: 3.52 µM
SMILES: C[C@@H](NC(=O)c1ncnc(N)c1Cl)c1ncc(C(=O)Nc2cc(C(F)(F)F)c(Cl)cn2)s1 + CC(Nc1ncnc2nc[nH]c12)c1cc2cccc(Cl)c2c(=O)n1-c1ccccc1
viability, T/C [5]: 158% | viability, T/C [6]: 182% | viability, T/C [7]: 124% | viability, T/C [8]: 145% | viability, T/C [9]: 153% | viability, T/C [10]: 118% | viability, T/C [11]: 128% | viability, T/C [12]: 172% | viability, T/C [13]: 153% | viability, T/C [14]: 144% | viability, T/C [15]: 147% | viability, T/C [16]: 104% | viability, T/C [17]: 112% | viability, T/C [18]: 150% | viability, T/C [19]: 135% | viability, T/C [20]: 145% | viability, T/C [21]: 150% | viability, T/C [22]: 64.8% | viability, T/C [23]: 146% | viability, T/C [24]: 146% | viability, T/C [25]: 147% | viability, T/C [26]: 175% | viability, T/C [27]: 144% | viability, T/C [28]: 96.1% | viability, T/C [31]: 119% | viability, T/C [32]: 141% | viability, T/C [33]: 111% | viability, T/C [34]: 148% | viability, T/C [35]: 91.4% | viability, T/C [36]: 44.6% | viability, T/C [37]: 72.8% | viability, T/C [38]: 131% | viability, T/C [39]: 88.7% | viability, T/C [40]: 93.2% | viability, T/C [41]: 51% | viability, T/C [42]: 39.9%
